Measurements taken from patent publication US5700774A, “Compositions comprising bone morphogenic proteins and truncated parathyroid hormone related peptide, and methods of inducing cartilage by administration of same” (Genetics Institute, Inc., priority 1996, dated 1997).

System: cell lines derived from E13 mouse limb buds
Test: Northern analysis of tissue specific mRNA expression in limb bud cell lines
Format: cell-based
Settings: PTHrP1-34 alone, 100 ng/ml, 1, 2, 4 or 8 days
Protocol: PTHrP was tested for its effect on cell lines derived from E13 mouse limb buds either alone or in combination with BMP-2. Cells were grown to confluence in DME medium supplemented with 10% fetal calf serum (FCS). At confluence, cells were transferred to DME medium supplemented with 1% FCS and cultured for 1, 2, 4 or 8 days in the presence of either BMP-2 (100 ng/ml), PTHrP1-34 (100 ng/ml)(Peninsular Laboratories Inc). or a combination of BMP-2 and PTHrP1-34. Northern analysis was used to determine expression of tissue specific mRNAs for cartilage (proteoglycan core protein, collagen type II and decorin), bone (osteocalcin, alkaline phosphatase and collagen type I) and hypertrophic cartilage (collagen type X).

PTHrP1-34: truncated peptide which comprises the first 34 amino acids of PTHrP (Peninsular Laboratories Inc)
expression of any of the tissue specific mRNAs (cartilage, bone, hypertrophic cartilage markers): did not induce expression
